We go through 12 molecules from patent publication US5869515A, “1,3-dihydro-2H-imidazol-2-one compounds” (Janssen Pharmaceutica N.V., priority 1995, dated 1999).

T1 sequence (Q07343 1-564 isoform Q07343-2): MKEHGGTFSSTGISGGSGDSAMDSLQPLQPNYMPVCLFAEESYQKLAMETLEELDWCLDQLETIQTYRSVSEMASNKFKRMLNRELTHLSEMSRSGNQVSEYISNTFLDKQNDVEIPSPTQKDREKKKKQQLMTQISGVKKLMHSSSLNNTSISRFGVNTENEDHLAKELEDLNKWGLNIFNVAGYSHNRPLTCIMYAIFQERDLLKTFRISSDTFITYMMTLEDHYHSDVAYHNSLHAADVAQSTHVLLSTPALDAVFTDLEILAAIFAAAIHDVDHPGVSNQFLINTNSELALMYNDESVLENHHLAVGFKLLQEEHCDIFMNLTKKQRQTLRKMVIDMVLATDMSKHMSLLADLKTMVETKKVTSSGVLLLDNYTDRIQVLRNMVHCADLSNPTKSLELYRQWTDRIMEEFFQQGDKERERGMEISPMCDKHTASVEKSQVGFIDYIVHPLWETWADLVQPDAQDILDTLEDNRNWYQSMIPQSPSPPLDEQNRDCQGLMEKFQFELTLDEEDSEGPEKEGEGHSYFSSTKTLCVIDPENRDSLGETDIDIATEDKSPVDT

One assay deals with dextran-induced oedema formation in mouse ear. Description: Dextran-Induced Oedema Formation in Mouse Ear. The assay is classed as in vivo, male Swiss mice. To be noted: oral, mice, 1 h before i.v. dextran T500 and pontamine sky-blue, compared with background extravasation, read-out: % inhibition of the extravasation of the dye. As to the method: Dextran-Induced Oedema Formation in Mouse Ear
Systemic injection of dextran T500 in normal, non-sensitized mice elicits increased vascular permeability, leading to extravasation and oedema of the extremities. When dextran is injected together with a blue dye, blueing of the ears is the most prominent feature of oedematous response.
Male Swiss mice weighing 24-26 g were orally pretreated with the test compound dissolved in PEG-200 at different concentrations or solvent. One hour later, the mice were given an intravenous injection with an isotonic saline solution containing 12 mg/ml dextran T500 and 2.6 mg/ml pontamine sky-blue dye, in a volume of 0.1 ml per 10 g body weight. One hour and forty-five minutes later, the animals are sacrificed by ether and their ears removed. Extraction and quantification of the extravasated dye is done as described by Van Wauwe and Goossens (Drug Dev. Res. 1986, 8, 213-218).
The extravasation of the dye is characterized by the blueing value which is defined as the concentration of the extracted dye in both ears. The background blueing value was determined once as the mean blueing value obtained by injecting a group of mice with a saline solution containing only dextran T500 and the blue dye. Table 2 lists the percentage inhibition of the extravasation of the dye when compared with the background extravasation of the dye when the test compound was administered at a dose of 5 mg/kg.
As to `COc1ccc(/C(=C\C#N)CN2CCNC2=O)cc1OC` [Compound 9, (E)-3-(3,4-dimethoxyphenyl)-4-(2-oxo-1-imidazolidinyl)-2-butenenitrile], the inhibition in vivo at 5 mg/kg came out at 53.8%.
With `COc1ccc(C(=O)CN2CCN(C3CCCCO3)C2=O)cc1OC` (racemic) [Compound 8, (±)-1-[2-(3,4-dimethoxyphenyl)-2-oxoethyl]-3-(tetrahydro-2H-pyran-2-yl)-2-imidazolidinone], the inhibition in vivo at 5 mg/kg came out at 5.2%.
As for `COc1ccc(Cn2ccn(CC(=O)c3ccc(OC)c(OC4CCCC4)c3)c2=O)cc1` [Compound 10, 1-[2-[3-(cyclopentyloxy)-4-methoxyphenyl]-2-oxoethyl]-1,3-dihydro-3-[(4-methoxyphenyl)methyl]-2H-imidazol-2-one], the inhibition in vivo at 5 mg/kg came to 56%.
On to `COc1ccc(C(=O)CN2CCNC2=O)cc1OC1CCCC1` [Compound 13], for which the inhibition in vivo at 5 mg/kg was determined as 27.9%.
`CCOC(=O)n1ccn(CC(=O)c2ccc(OC)c(OC3CCCC3)c2)c1=O` [Compound 2, ethyl 3-[2-[3-(cyclopentyloxy)-4-methoxphenyl]-2-oxoethyl]-2,3-dihydro-2-oxo-1H-imidazole-1-carboxylate]: the inhibition in vivo at 5 mg/kg came to 55.6%.
With `COc1ccc(C(=O)Cn2ccn(Cc3ccccc3)c2=O)cc1OC` [Compound 5, 1-[2-(3,4-dimethoxyphenyl)-2-oxoethyl]-1,3-dihydro-3-(phenylmethyl)-2H-imidazol-2-one], the inhibition in vivo at 5 mg/kg stood at 28.7%.
Same read-out and setting: the value for `CCOC(=O)N1CCN(CC(=O)c2ccc(OC)c(OC)c2)C1=O` [Compound 15] was 19.2%; that for `COc1ccc(C(=O)Cn2ccnc2O)cc1OC1CCCC1` [Compound 1, 1-[2-[3-(cyclopentyloxy)-4-methoxyphenyl]-2-oxoethyl]-1,3-dihydro-2H-imidazol-2-one] was 48.3%; that for `COc1ccc(C(=O)Cn2ccn(C(c3ccccc3)c3ccccc3)c2=O)cc1OC` [Compound 11] was 34.6%.
Turning to `COc1ccc(C(=O)CN2CCNC2=O)cc1OC` [Compound 7, 1-[2-(3,4-dimethoxyphenyl)-2-oxoethyl]-2-imidazolidinone], the inhibition in vivo at 5 mg/kg came to 22.6%.
Consider `COc1ccc(Cn2ccn(CC(=O)c3ccc(OC)c(OC)c3)c2=O)c(OC)c1` [Compound 12], for which the inhibition in vivo at 5 mg/kg stood at 26.4%.

The next assay addresses T1, recombinant human MNL phosphodiesterase type IV B (Homo sapiens, UniProt Q07343).
T1 construct: made in house
Description: Inhibition of Recombinant Human Mononuclear Lymphocyte (MNL) Phosphodiesterase Type IV B Produced in Insect Cells with a Baculovirus Vector. The assay is classed as biochemical. To be noted: 0.8 μM 3H-cAMP, pH 8, 10 min, 37° C., 1% DMSO; read-out: IC50 value, recombinant human MNL phosphodiesterase PDE IV B. As to the method:
Inhibition of Recombinant Human Mononuclear Lymphocyte (MNL) Phosphodiesterase Type IV B Produced in Insect Cells with a Baculovirus Vector The alleviating and/or curing effect of the instant compounds on allergic and atopic diseases was assessed by an in vitro assay system to detect an inhibiting effect on the recombinant human MNL phosphodiesterase type IV B. Seventy-two hours after infection with recombinant baculovirus, the insect cells were harvested and pelleted at 500 g for 5 minutes. The cells were lysed in 10 ml lysis-buffer consisting of 20 mM Tris, 10 mM EGTA, 2 mM Na2 EDTA, 1% Triton-X-100, 1 mM Na3 VO4, 10 mM NaF, 2 μg/ml of leupeptine, pepstatine and aprotinine, 0.3 μg/ml benzamidine and 100 μg/ml TPCK pH 7.5. After 5 minutes on ice, solubilized cells were centrifuged at 4000 rpm for 15 minutes at 4° C. The resulting supernatant was filtered through a 0.45 μm filter (Millipore) and brought to TBS buffer (50 mM Tris, 150 mM NaCl pH 7.4). […] The inhibiting effect of the present compounds on recombinant human MNL phosphodiesterase PDE IV B was measured at different concentrations of the instant compounds. The IC50 values (expressed in M) were calculated graphically from the thus obtained inhibition values.
As a reminder, the IC50 is the point on the concentration scale where inhibition reaches its midpoint. For the molecule `COc1ccc(C(=O)Cn2ccnc2O)cc1OC1CCCC1` [Compound 1, 1-[2-[3-(cyclopentyloxy)-4-methoxyphenyl]-2-oxoethyl]-1,3-dihydro-2H-imidazol-2-one], the IC50 is below 1000 nM.
For the molecule `C=C(Cn1cc[nH]c1=O)c1ccc(OC)c(OC2CCCC2)c1` [Compound 4, 1-[2-[3-(cyclopentyloxy)-4-methoxy-phenyl]-2-propenyl]-1,3-dihydro-2H-imidazol-2-one], the IC50 was below 1000 nM.
